Reference: PMC8124269 (Molecules, 2021)
Entries after “also recorded” stand apart in the source; their conditions may differ. Read-outs that look alike come from different tables or passages of the source.

Assays:
SARS-CoV-2 [1] = assay: microbe, parasite or virus in culture; type: cell-based; details: for effect on viral replication: infected Vero E6 cells, MOI 0.01, 48 and 72 hpi
COX = details: cited from earlier work; for COX Inhibition: which COX is inhibited, ref 11 (given for naproxen A and C0)
[2] = Cytotoxicity in Vero E6 cells; details: African green monkey
[3] = test system: N NTD oligomerization induced by 48-mer DNA; type: biochemical; details: for Oligomer Inhibition/Enhancement / Oligomer Size (hydrodynamic diameter Dh of DNA-NTD complex): NTD (60 µM) monomer, [compound] = 37.5 µM, [48-mer] = 29.4 µM; for Oligomer Size (hydrodynamic diameter Dh of DNA-NTD complex): 20 °C, without ligand 15.7 ± 0.7
SARS-CoV-2 [4] = test system: SARS-CoV-2; design: method as in PMID 33441348; details: cited from earlier work
viral 3C-like protease = details: cited from earlier work
SARS-CoV-2 in nasal HAE = details: 90 µM or 300 µM, postinfection treatment, 48 hpi
Influenza A virus = details: cited from earlier work
wild type N-NTD = test system: wild type N-NTD; design: method as in PMID 22272272; details: hexachlorofluorescein labeled ssRNA titrated with N-NTD; read-out: KD of RNA binding to N-NTD; cited from earlier work
[5] = biological target: SARS-CoV-2 N-NTD (monomer) with labeled 10-mer RNA (Severe acute respiratory syndrome coronavirus 2, UniProt P0DTC9); assay: biochemical; details: read-out: N Binding, Fluo Anisotropy (KD, displacement of RNA)
in vitro = details: African green monkey
[6] = Vero E6, MOI 0.01, treatment 1 hpi

Cc1ccc(-c2cc(C(F)(F)F)nn2-c2ccc(S(N)(=O)=O)cc2)cc1 [Celecoxib]
Mean IC50 (viral replication) (SARS-CoV-2 [1]; [6]): proviral
effect on viral replication (SARS-CoV-2 [1]): No inhibition of viral replication; also recorded: did not present a clear antiviral effect
COX Inhibition (COX): COX2
CC50 [2]: 80 µM
CC50 at 48 h post infection [2]: 83 µM
Oligomer Inhibition/Enhancement ([3]; listed as celecoxib): enhanced the formation of large species
Oligomer Size, large particles formed ([3]; compound in DMSO, compared to N + DMSO (12 nm)): ^7 Formation of large particles of 3 µm as compared to N + DMSO (12 nm)

CC(C)Cc1ccc(C(C)C(=O)O)cc1 (stereo not drawn) [ibuprofen]
effect on SARS-CoV-2 entry or replication in vitro (SARS-CoV-2 [4]): did not affect SARS-CoV-2 entry or replication in vitro

COc1ccc2cc([C@H](C)C(=O)O)ccc2c1 [Naproxen, naproxen]
IC50 (viral 3C-like protease): 3.45 µM
IC50 (SARS-CoV-2 [1]; Severe acute respiratory syndrome coronavirus 2, Vero C1008, Vero E6, MOI 0.01, unique treatment at 1 hpi, 48 hpi): 46.1 µM
IC50 (SARS-CoV-2 [1]; Severe acute respiratory syndrome coronavirus 2, Vero C1008, Vero E6, MOI 0.01, unique treatment at 1 hpi, 72 hpi): 59.5 µM
IC50 (SARS-CoV-2 [1]; Severe acute respiratory syndrome coronavirus 2, Vero C1008, read-out: Mean IC50 (viral replication), Vero E6, MOI 0.01, treatment 1 hpi): 50 ± 10 µM
IC50 (SARS-CoV-2 [1]; read-out: Mean IC50 (viral replication), Vero E6, MOI 0.01, treatment 1 hpi): 52 ± 6 µM
COX Inhibition (COX): COX1 + COX2
antiviral effect versus mock-treated control (SARS-CoV-2 in nasal HAE): did not show an antiviral effect
IC50 (Influenza A virus; MOI = 10^−2): 25 ± 7 µM
Oligomer Size (hydrodynamic diameter Dh of DNA-NTD complex) [3]: 7.9 ± 0.3 nm

10-mer RNA: fluorescently labeled RNA UCUCUAAACG labeled with 5′-hexachlorofluorescein
Kd (wild type N-NTD): 8.3 ± 0.8 µM

CC(=O)Nc1ccc(O)cc1 [Acetaminophen (paracetamol), Acetaminophen]
Mean IC50 (viral replication) (SARS-CoV-2 [1]; [6]): No inhibition
effect on viral replication (SARS-CoV-2 [1]): No inhibition of viral replication; also recorded: mainly not affecting viral replication
COX Inhibition (COX): COX1 + COX2 ? ^1
CC50 [2]: > 400 µM
CC50 at 48 h post infection [2]: > 400 µM
CC50 at 72 h post infection [2]: > 400 µM
Oligomer Inhibition/Enhancement [3]: did not modify NTD oligomerization
Oligomer Size (hydrodynamic diameter Dh of DNA-NTD complex) [3]: 14.0 ± 1.0 nm

COc1ccc2cc(-c3c(C(=O)O)cccc3C(=O)O)ccc2c1 [Naproxen C0]
IC50 (SARS-CoV-2 [1]; Severe acute respiratory syndrome coronavirus 2, Vero C1008, Vero E6, MOI 0.01, treatment 1 hpi, read-out: Mean IC50 (viral replication)): 75 ± 25 µM
IC50 (SARS-CoV-2 [1]; Severe acute respiratory syndrome coronavirus 2, Vero C1008, Vero E6, MOI 0.01, unique treatment at 1 hpi, 48 hpi, read-out: IC50): 101 µM
IC50 (SARS-CoV-2 [1]; Severe acute respiratory syndrome coronavirus 2, Vero C1008, Vero E6, MOI 0.01, unique treatment at 1 hpi, 72 hpi, read-out: IC50): 45.1 µM
IC50 (SARS-CoV-2 [1]; Vero E6, MOI 0.01, treatment 1 hpi, read-out: Mean IC50 (viral replication)): 73 ± 25 µM
ability to inhibit COX (COX): lacked the ability to inhibit COX
Kd [5]: 1.6 µM
Oligomer Size (hydrodynamic diameter Dh of DNA-NTD complex) [3]: 12.7 ± 0.7 nm
CC50 (in vitro): > 1000 µM
CC50 at 48 h post infection (in vitro): > 1000 µM
CC50 at 72 h post infection (in vitro): > 1000 µM

COc1ccc2cc(C(CCC(=O)O)C(=O)O)ccc2c1 (stereo not drawn) [Naproxen A]
Mean IC50 (viral replication) (SARS-CoV-2 [1]; [6]): No inhibition
effect on viral replication (SARS-CoV-2 [1]): did not reduce viral replication
ability to inhibit COX (COX): lacked the ability to inhibit COX
antiviral effect against Influenza A virus (Influenza A virus): no antiviral effect
Oligomer Size (hydrodynamic diameter Dh of DNA-NTD complex) [3]: 16.0 ± 0.8 nm
CC50 (in vitro): > 1000 µM
CC50 at 48 h post infection (in vitro): > 1000 µM
CC50 at 72 h post infection (in vitro): > 1000 µM

Cc1cnc(NC(=O)C2=C(O)c3ccccc3S(=O)(=O)N2C)s1 [meloxicam]
effect on SARS-CoV-2 entry or replication in vitro (SARS-CoV-2 [4]): did not affect SARS-CoV-2 entry or replication in vitro
